ChEMBL document CHEMBL1201862, “PubChem BioAssay data set” (2004)
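Results reflect a 48-hour exposure of cells in 96-well plates to compound at five concentrations. GI50 is the concentration that inhibits growth by half.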 Calls of active or inactive are those of the source. Cut-off read from the data, not from the text of the source: active = GI50 up to about 1.1 µM and inactive = higher.

How the values were obtained:
Test in all cases: NCI anticancer screen, dose series, 48 h
[1] = tested on: BT-549
[2] = tested on: HCT-116
[3] = tested on: HCT-15
[4] = tested on: SF-539
[5] = tested on: IGROV-1
[6] = tested on: K562
[7] = tested on: TK-10
[8] = tested on: PC-3
[9] = tested on: UACC-257
[10] = tested on: DU-145
[11] = tested on: MCF7
[12] = tested on: U-251
[13] = tested on: SK-MEL-2
[14] = tested on: LOX IMVI
[15] = tested on: OVCAR-3
[16] = tested on: A549
[17] = tested on: CAKI-1
[18] = tested on: HOP-62
[19] = tested on: RXF 393

Structure (SMILES) | GI50 [1] | GI50 [2] | GI50 [3] [µM] | GI50 [4] | GI50 [5] | GI50 [6] | GI50 [7] | GI50 [8] | GI50 [9] | GI50 [10] | GI50 [11] | GI50 [12] | GI50 [13] | GI50 [14] | GI50 [15] | GI50 [16] | GI50 [17] | GI50 [18] | GI50 [19]
CCOc1cc(C(c2c(O)c3ccccc3oc2=O)c2c(O)c3ccccc3oc2=O)ccc1OC | 20.7 µM (inactive) | 19.5 µM (inactive) | 21.3 | 20.7 µM (inactive) | 17.7 µM (inactive) | 33.4 µM (inactive) | 18 µM (inactive) | 17.3 µM (inactive) | 16.4 µM (inactive) | 19.3 µM (inactive) | 21 µM (inactive) | 15.8 µM (inactive) | 20.6 µM (inactive) | 20.6 µM (inactive) | 16.3 µM (inactive) | 38.6 µM (inactive) | 16.4 µM (inactive) | 18.2 µM (inactive) | –
FC(F)(F)c1cccc(COCCN2CCN(Cc3cccc(C(F)(F)F)c3)CC2)c1 | 15.6 µM (inactive) | 14.4 µM (inactive) | 16.2 | 18 µM (inactive) | 15.6 µM (inactive) | 11.8 µM (inactive) | 13.7 µM (inactive) | 9.33 µM (inactive) | 17.4 µM (inactive) | 17 µM (inactive) | 15.7 µM (inactive) | 18.1 µM (inactive) | – | – | 20 µM (inactive) | 16.2 µM (inactive) | 17.5 µM (inactive) | 20 µM (inactive) | –
O=S1OC[C@H](CCCl)O1 (stereo not given in full) | > 100 µM (inactive) | > 100 µM (inactive) | > 100 | > 100 µM (inactive) | > 100 µM (inactive) | > 100 µM (inactive) | > 100 µM (inactive) | > 100 µM (inactive) | > 100 µM (inactive) | > 100 µM (inactive) | > 100 µM (inactive) | > 100 µM (inactive) | > 100 µM (inactive) | 83.6 µM (inactive) | > 100 µM (inactive) | > 100 µM (inactive) | > 100 µM (inactive) | > 100 µM (inactive) | –
CC1=NNC(=O)C1C1CC(c2c[nH]c3ccccc23)=NN(C(N)=O)C1=O (stereo not given) | 34.3 µM (inactive) | 83.2 µM (inactive) | 37.8 | 91.4 µM (inactive) | 4.4 µM (inactive) | 33 µM (inactive) | > 100 µM (inactive) | 65.3 µM (inactive) | > 100 µM (inactive) | > 100 µM (inactive) | – | 51.2 µM (inactive) | > 100 µM (inactive) | 62.7 µM (inactive) | > 100 µM (inactive) | 64 µM (inactive) | > 100 µM (inactive) | > 100 µM (inactive) | 52.1 µM (inactive)
O=c1cc(CO)n(CCc2c[nH]c3ccccc23)cc1O | > 100 µM (inactive) | 71.9 µM (inactive) | 51.2 | > 100 µM (inactive) | 86.5 µM (inactive) | – | > 100 µM (inactive) | > 100 µM (inactive) | > 100 µM (inactive) | 28.2 µM (inactive) | 25.1 µM (inactive) | 39.6 µM (inactive) | 30.1 µM (inactive) | > 100 µM (inactive) | 26.2 µM (inactive) | > 100 µM (inactive) | 46.2 µM (inactive) | 62.7 µM (inactive) | –
CN1CC2=C(N=C(S)NC2c2ccc(Cl)cc2)/C(=C/c2ccc(Cl)cc2)C1 (stereo not given) | 20.4 µM (inactive) | 15.7 µM (inactive) | 13.8 | 25.9 µM (inactive) | 16.1 µM (inactive) | 12.6 µM (inactive) | 22.6 µM (inactive) | 9.4 µM (inactive) | 20 µM (inactive) | 14.1 µM (inactive) | 22 µM (inactive) | 17.2 µM (inactive) | 13.3 µM (inactive) | 16.1 µM (inactive) | 15.3 µM (inactive) | 19 µM (inactive) | 18.3 µM (inactive) | 19.2 µM (inactive) | –
